One data set has as its target 2C9 (Homo sapiens (Human), UniProt P11712). Briefly: CYP 2C9 inhibition. Type of data set: in vitro ADME.
Another data set deals with 3A4 (Homo sapiens (Human), UniProt P08684). Briefly: CYP 3A4 inhibition. Type of data set: in vitro ADME.
The next data set has as its target mGlu4 (Homo sapiens, UniProt Q14833). Briefly: mGluR4 potentiation (PAM) fluorescence assay with EC20 agonist. The data set is classed as cell-based. The protocol: The disclosed compounds and compositions can be evaluated for their ability to act as a potentiator of metabotropic glutamate receptor activity, in particular mGluR4 activity, by any suitable known methodology known in the art. For example, Chinese Hamster Ovary (CHO) cells transfected with human mGluR4 or HEK cells co-transfected with rat mGuR4 and the G-protein regulated Inwardly Rectifying Potassium channel (GIRK) were plated in clear bottom assay plates for assay in a Hamamatsu FDSS Fluorometric Plate Reader. The cells were loaded with either a Ca2+-sensitive fluorescent dye or the thallium responsive dye and the plates were washed and placed into a suitable kinetic plate reader. For human mGuR4 assays, a fluorescence baseline was established for 3-5 seconds, the disclosed compounds were then added to the cells, and the response in cells was measured. Approximately two and a half minutes later, a concentration of mGuR4 orthosteric agonist (e.g. glutamate or L-AP4) eliciting approximately 20% (EC20) of the maximal agonist response was added to the cells, and the response was measured. Two minutes later, a concentration of mGluR4 agonist (e.g. glutamate or L-AP4) eliciting 80% (EC80) of the maximal agonist response was added to the cells, and the response was measured. […] If the compound acts as a noncompetitive antagonist, an IC50 value is determined by non-linear curve fitting. […]

The target of another data set is 2D6 (Homo sapiens (Human), UniProt P10635). Nature of the data set: CYP 2D6 inhibition. The data set is classed as in vitro ADME.
The nature of data set [1]: Rat plasma fraction unbound. Type of data set: in vitro ADME. Conditions: read-out: Rat Fu Plasma.
In another data set the target is 1A2 (Homo sapiens (Human), UniProt P05177). Nature of the data set: CYP 1A2 inhibition. The data set is classed as in vitro ADME.
The nature of data set [2]: Rat brain fraction unbound. The data set is classed as in vitro ADME. To be noted: read-out: Rat Fu Brain.
A short description of data set [3]: Human plasma fraction unbound. The data set is classed as in vitro ADME. Conditions: read-out: Human Fu Plasma.
Another data set can be described thus: Brain-plasma partition. The data set is classed as in vivo. Conditions: rat; for unbound brain-to-plasma partition coefficient (Kp,uu): unbound brain-plasma ratio, read-out: Brain-Plasma Kp,ω.
Data set [4] in a line: Human intrinsic and hepatic clearance. The data set is classed as in vitro ADME.
Data set [5] can be described thus: Rat intrinsic and hepatic clearance. The data set is classed as in vitro ADME.
The next data set can be described thus: Kinetic solubility. The data set is classed as physicochemical. To be noted: kinetic from dmso stock.
The nature of another data set: Rat in vivo clearance. Conditions: read-out: Rat in Vivo CL.

In brackets after ≈: the same amount, converted by molar mass.

Chain of 2C9 (P11712 whole entry): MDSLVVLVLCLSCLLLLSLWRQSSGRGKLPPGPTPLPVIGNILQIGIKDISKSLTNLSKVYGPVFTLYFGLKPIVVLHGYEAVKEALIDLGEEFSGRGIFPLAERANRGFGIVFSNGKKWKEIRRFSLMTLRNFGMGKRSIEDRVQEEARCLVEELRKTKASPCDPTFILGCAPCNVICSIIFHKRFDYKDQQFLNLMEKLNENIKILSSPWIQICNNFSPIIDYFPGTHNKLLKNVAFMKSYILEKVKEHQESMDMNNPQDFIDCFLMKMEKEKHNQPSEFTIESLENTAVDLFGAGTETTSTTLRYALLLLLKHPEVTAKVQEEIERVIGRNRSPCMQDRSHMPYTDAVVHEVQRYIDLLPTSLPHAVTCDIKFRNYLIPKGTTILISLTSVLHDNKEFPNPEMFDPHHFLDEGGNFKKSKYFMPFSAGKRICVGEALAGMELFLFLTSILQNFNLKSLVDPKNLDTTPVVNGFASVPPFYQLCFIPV
Chain of 1A2 (P05177 whole entry): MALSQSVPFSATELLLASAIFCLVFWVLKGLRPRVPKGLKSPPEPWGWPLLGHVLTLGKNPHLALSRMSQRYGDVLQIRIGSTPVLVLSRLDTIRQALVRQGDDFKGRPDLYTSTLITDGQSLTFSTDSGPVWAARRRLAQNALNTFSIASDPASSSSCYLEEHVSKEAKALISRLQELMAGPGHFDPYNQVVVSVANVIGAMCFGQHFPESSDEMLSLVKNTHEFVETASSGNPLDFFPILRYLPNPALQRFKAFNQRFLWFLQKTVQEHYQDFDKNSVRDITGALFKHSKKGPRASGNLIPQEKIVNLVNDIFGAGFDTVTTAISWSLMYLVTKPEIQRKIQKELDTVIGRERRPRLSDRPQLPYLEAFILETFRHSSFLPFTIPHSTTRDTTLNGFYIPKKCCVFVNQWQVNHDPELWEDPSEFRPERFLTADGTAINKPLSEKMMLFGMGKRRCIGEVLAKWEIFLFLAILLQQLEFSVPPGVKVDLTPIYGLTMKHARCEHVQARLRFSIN
Chain of 2D6 (P10635 whole entry): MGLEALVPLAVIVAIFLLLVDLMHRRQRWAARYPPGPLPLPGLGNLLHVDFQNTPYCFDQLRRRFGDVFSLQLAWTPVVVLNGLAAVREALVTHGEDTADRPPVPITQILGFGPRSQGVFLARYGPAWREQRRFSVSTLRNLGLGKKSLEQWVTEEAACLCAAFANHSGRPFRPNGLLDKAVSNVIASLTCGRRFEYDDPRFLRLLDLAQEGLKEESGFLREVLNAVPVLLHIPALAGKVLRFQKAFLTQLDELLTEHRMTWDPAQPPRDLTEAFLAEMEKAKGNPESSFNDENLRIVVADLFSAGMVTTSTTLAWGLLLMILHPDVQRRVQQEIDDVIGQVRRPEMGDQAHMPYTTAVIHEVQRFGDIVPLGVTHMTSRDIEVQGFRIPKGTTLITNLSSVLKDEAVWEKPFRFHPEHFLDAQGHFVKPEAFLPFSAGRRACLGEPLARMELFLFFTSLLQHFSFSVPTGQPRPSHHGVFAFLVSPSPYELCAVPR
Chain of 3A4 (P08684 whole entry): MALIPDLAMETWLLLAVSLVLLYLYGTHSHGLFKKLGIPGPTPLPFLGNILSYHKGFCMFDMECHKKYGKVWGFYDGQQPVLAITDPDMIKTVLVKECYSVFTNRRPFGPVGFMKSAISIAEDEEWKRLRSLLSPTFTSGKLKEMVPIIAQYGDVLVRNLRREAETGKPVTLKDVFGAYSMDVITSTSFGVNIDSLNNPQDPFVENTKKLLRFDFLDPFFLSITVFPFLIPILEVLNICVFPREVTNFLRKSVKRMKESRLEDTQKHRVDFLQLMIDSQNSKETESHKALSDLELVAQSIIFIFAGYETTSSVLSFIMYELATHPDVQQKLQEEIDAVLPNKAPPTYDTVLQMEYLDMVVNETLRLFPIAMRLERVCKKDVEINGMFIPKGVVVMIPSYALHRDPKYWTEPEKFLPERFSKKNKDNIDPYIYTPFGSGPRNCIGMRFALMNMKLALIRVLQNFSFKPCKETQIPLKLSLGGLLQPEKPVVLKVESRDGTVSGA
Chain of mGlu4 (Q14833 33-912 limits assumed): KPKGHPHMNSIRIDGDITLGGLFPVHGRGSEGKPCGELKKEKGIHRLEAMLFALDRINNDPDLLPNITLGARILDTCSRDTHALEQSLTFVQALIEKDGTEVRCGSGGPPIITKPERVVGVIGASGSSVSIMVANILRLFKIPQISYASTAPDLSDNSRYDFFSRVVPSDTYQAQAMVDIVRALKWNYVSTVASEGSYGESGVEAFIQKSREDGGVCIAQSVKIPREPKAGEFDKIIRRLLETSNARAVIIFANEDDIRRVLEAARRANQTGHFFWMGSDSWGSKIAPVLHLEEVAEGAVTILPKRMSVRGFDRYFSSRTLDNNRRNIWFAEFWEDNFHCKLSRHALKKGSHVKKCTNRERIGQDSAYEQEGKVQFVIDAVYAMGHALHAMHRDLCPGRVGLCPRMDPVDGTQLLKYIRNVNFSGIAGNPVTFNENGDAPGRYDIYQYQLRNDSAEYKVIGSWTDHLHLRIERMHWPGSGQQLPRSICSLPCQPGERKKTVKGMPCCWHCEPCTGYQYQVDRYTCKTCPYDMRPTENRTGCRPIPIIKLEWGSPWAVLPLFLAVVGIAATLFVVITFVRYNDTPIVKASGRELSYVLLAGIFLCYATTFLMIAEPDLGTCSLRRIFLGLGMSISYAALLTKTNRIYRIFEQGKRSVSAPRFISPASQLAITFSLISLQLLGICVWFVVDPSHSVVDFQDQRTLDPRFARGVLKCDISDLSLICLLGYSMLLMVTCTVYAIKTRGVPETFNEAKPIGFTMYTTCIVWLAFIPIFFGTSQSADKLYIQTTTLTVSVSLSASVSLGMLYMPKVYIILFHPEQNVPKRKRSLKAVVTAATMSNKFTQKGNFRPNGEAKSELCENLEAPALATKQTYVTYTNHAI

One may read the IC50 as the midpoint of a concentration-inhibition curve. Low values mean greater potency in that assay, high ones weaker potency in that assay. As usually defined, the EC50 is the concentration needed to bring the measured effect to its halfway point. In general, Kp refers to the ratio of the level in a tissue or fluid to that in plasma or blood. The term CLint scaled denotes the capacity of the preparation to metabolise the compound, expressed as a volume cleared per time. Read a low CLint scaled as slow turnover. In the case of `c1cnc2c(Nc3ccc4c(OCC5CCCCO5)nccc4c3)n[nH]c2c1` (stereo not drawn) [Compound 56], the 50% inhibitory concentration (IC50) at 2C9 is 3.56 µM; on 3A4, 22.6 µM; at 2D6 it was 22.2 µM; on 1A2, 8.43 µM. In addition, on mGlu4, the EC50 turned out to be 0.0788 µM. The fraction unbound in data set [1] amounted to 0.014; in [2], 0.003; in [3], 0.007. The Kp in “Brain-plasma partition” was 1.09. In “Brain-plasma partition”, the unbound brain-to-plasma partition coefficient (Kp,uu) came to 0.23. The CLint scaled came out at 72.3 mL/min/kg in data set [4] and 348 mL/min/kg in data set [5]. For the same compound, in data set [4], the “Human CLhep” value amounted to 16.3 mL/min/kg. Moreover, the “Rat CLhep” value in data set [5] amounted to 58.3 mL/min/kg.
Usually solubility (kinetic) stands for solubility judged after dilution from a stock solution rather than from solid. Regarding `c1cnc2c(Nc3ccc4c(O[C@H]5CCOC5)nccc4c3)n[nH]c2c1` [Compound 64], the kinetic solubility in “Kinetic solubility” came out at 4.9 ± 0.6 µM (≈ 1.7 µg/mL). The IC50 was 10.6 µM at 2C9, 27.7 µM on 3A4, over 30 µM against 2D6 and 7.99 µM against 1A2. Further, in the data set “Rat in vivo clearance”, the clearance is 59.8 mL/min/kg. In addition, the fraction unbound was 0.042 in data set [1], 0.007 in [2] and 0.02 in [3]. Further, the Kp in the data set “Brain-plasma partition” came to 1.22. Further, the unbound brain-to-plasma partition coefficient (Kp,uu) in the data set “Brain-plasma partition” was 0.2. The CLint scaled in [4] was 29.1 mL/min/kg; in data set [5], 94.8 mL/min/kg. Further, in data set [4], the “Human CLhep” value worked out at 12.2 mL/min/kg. For the same compound, in data set [5], the “Rat CLhep” value is recorded as 40.3 mL/min/kg.
In turn, `CO[C@H](C)COc1nccc2cc(Nc3n[nH]c4cccnc34)ccc12` [Compound 70] showed a solubility (kinetic) in the data set “Kinetic solubility” of 2.9 ± 0.4 µM (≈ 1.01 µg/mL). In addition, the IC50 against 2C9 stood at 6.87 µM; against 3A4, 11.4 µM; at 2D6, 22.5 µM; against 1A2, 4.96 µM. Also, the clearance in “Rat in vivo clearance” was 74.2 mL/min/kg. In addition, the fraction unbound in data set [1] stood at 0.032; in [2] it was 0.006; in data set [3] it was 0.017. Besides, the Kp in the data set “Brain-plasma partition” was 2.56. Further, the unbound brain-to-plasma partition coefficient (Kp,uu) in “Brain-plasma partition” was 0.48. Also, the CLint scaled in data set [4] was 57 mL/min/kg; in data set [5], 238 mL/min/kg. Also, in [4], the “Human CLhep” value amounted to 15.3 mL/min/kg. Besides, the “Rat CLhep” value in data set [5] came to 54.1 mL/min/kg.
As for `c1cnc2c(Nc3ccc4c(OCC5COCCO5)nccc4c3)n[nH]c2c1` (stereo not drawn) [Compound 73], the kinetic solubility in “Kinetic solubility” came to 2.4 ± 0.5 µM (≈ 0.906 µg/mL). Further, the IC50 is 15.3 µM against 2C9, 29.5 µM against 3A4, over 30 µM on 2D6 and 16.4 µM against 1A2. The clearance in “Rat in vivo clearance” came to 32.7 mL/min/kg. The fraction unbound in data set [1] was determined as 0.039; in [2] it was 0.01; in [3] it was 0.038. The compound further gave a Kp in the data set “Brain-plasma partition” of 0.57. In addition, the unbound brain-to-plasma partition coefficient (Kp,uu) in “Brain-plasma partition” amounted to 0.15. Also, the CLint scaled in [4] turned out to be 26.5 mL/min/kg; in [5], 120 mL/min/kg. Further, in data set [4], the “Human CLhep” value was 11.5 mL/min/kg. Besides, the “Rat CLhep” value in data set [5] is 44.2 mL/min/kg.
`c1cc2cc(Nc3n[nH]c4nccnc34)ccc2c(OCC2CCCCO2)n1` (stereo not drawn) [Compound 57]: the EC50 on mGlu4 stood at 0.0697 µM. Moreover, the fraction unbound in data set [1] is 0.015. In data set [2], the fraction unbound came to 0.004. Moreover, the fraction unbound in [3] is 0.011. In the data set “Brain-plasma partition”, the Kp worked out at 0.89 and the unbound brain-to-plasma partition coefficient (Kp,uu) was determined as 0.24. For the same compound, in data set [4], the intrinsic clearance (CLint scaled) is 53.8 mL/min/kg and the “Human CLhep” value came to 15.1 mL/min/kg. Besides, in data set [5], the CLint scaled was 211 mL/min/kg and the “Rat CLhep” value is listed as 52.6 mL/min/kg.

Values taken from patent publication US10968227B2, “Isoquinoline ether compounds as mGluR4 allosteric potentiators, compositions, and methods of treating neurological dysfunction” (Vanderbilt University, priority 2016, dated 2021).
